One experiment concerns the target IKKε (Homo sapiens (Human), UniProt Q14164). Put plainly: IKKε kinase assay (384-well flashplate assay). The format is biochemical. The note with it: 1 nM IKKε, 10 μM ATP, 30° C., 2 hours; read-out: IKKε enzyme assay IC50. The method, then: Test for the Inhibition of IKKε
IKKε—Kinase Assay (IKKepsilon)
The kinase assay is performed as 384-well flashplate assay (for example for Topcount measurement).
1 nM IKKε, 800 nM biotinylated IκBα(19-42) peptide (Biotin-C6-C6-[…]) and 10 μM ATP (spiked with 0.3 μCi of ^33P-ATP/well) are incubated at 30° C. for 2 hours in a total volume of 50 μl (10 mM MOPS, 10 mM Mg acetate, 0.1 mM EGTA, 1 mM dithiothreitol, 0.02% of Brij35, 0.1% of BSA, 0.1% of BioStab, pH 7.5) with or without test compound. The reaction is stopped using 25 μl of 200 mM EDTA. After 30 min at room temperature, the liquid is removed, and each well is washed three times with 100 μl of 0.9% sodium chloride solution. Non-specific reaction is determined in the presence of 3 μM MSC2119074 (BX-795). The radioactivity is measured using a Topcount (PerkinElmer). The results (for example IC50 values) are calculated using program tools provided by the IT Department (for example AssayExplorer, Symyx).

For experiment [1], the target named is TANK binding kinase (TBK1) (Homo sapiens (Human), UniProt Q9UHD2). Put plainly: TBK1 enzyme assay (384-well flashplate kinase assay). The format is biochemical. The note with it: 0.6 nM TBK1, 10 μM ATP, 30° C., 120 min.
Sequence of TANK binding kinase (TBK1) (Q9UHD2 whole entry): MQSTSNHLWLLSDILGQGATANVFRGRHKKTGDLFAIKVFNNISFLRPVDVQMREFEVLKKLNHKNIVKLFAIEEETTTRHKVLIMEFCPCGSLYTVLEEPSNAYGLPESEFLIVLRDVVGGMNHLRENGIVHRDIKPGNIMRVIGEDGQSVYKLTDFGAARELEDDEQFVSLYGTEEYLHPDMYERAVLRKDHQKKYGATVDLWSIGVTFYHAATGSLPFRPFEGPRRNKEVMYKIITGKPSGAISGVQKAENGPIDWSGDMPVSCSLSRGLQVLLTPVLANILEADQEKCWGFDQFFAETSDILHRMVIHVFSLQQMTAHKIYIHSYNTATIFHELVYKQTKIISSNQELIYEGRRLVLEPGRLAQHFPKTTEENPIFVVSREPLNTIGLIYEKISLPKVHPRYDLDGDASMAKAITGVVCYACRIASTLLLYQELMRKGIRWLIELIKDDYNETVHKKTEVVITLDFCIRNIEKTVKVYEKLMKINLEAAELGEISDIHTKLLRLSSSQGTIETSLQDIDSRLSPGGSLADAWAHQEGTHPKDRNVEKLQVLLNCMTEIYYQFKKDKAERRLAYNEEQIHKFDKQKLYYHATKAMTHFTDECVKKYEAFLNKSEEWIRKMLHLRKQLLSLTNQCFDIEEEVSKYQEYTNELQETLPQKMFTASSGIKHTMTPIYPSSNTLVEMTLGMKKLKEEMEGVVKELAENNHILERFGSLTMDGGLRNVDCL

Sequence of IKKε (Q14164 whole entry): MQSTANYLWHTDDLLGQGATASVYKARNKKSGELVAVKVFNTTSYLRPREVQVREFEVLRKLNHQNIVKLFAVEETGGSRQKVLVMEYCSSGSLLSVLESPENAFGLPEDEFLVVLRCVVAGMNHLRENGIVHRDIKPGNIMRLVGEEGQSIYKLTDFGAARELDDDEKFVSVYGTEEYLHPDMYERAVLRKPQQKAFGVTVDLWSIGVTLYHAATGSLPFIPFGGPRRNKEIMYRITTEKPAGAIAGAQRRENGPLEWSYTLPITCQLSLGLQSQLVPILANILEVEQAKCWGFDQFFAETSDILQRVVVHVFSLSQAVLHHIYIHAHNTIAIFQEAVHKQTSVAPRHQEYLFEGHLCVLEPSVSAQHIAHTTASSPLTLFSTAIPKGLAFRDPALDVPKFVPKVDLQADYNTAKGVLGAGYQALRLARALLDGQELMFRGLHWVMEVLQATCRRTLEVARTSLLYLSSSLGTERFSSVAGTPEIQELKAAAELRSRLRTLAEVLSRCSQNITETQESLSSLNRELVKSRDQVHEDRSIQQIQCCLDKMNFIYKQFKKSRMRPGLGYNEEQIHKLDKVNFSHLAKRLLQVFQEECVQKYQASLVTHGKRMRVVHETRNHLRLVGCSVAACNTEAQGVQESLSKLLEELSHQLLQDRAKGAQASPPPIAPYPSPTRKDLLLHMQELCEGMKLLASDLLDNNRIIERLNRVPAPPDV

For orientation: IC50 means the concentration needed to halve the response being measured. `Cc1coc(Nc2nccc(-c3ccc(OC4CCOCC4)c(C#N)c3)n2)n1` [Compound A93, 5-[2-(4-methyloxazol-2-ylamino)pyrimidin-4-yl]-2-(tetrahydropyran-4-yloxy)benzonitrile]: the figures for the IC50 (at IKKε; in experiment [1]) were 310 nM and 550 nM, respectively.

With `CC(=O)N1CCC(COc2ccc(-c3ccnc(Nc4cnn(C5CCNCC5)c4)c3)cc2C#N)CC1` [Compound A116, 2-(1-acetylpiperidin-4-ylmethoxy)-5-[2-(1-piperidin-4-yl-1H-pyrazol-4-ylamino)pyridin-4-yl]benzonitrile], the IC50 at IKKε came to 190 nM; in experiment [1], 6600 nM.

Turning to `N#Cc1cc(-c2ccnc(Nc3cnn(C4CCNCC4)c3)c2)ccc1OC1CCOCC1` [Compound A16, 5-[2-(1-Piperidin-4-yl-1H-pyrazol-4-ylamino)pyridin-4-yl]-2-(tetrahydropyran-4-yloxy)benzonitrile], the IC50 was determined as 7 nM at IKKε and 71 nM in experiment [1].

`Cn1nc(Nc2nccc(-c3ccc(OC4CCOCC4)c(C#N)c3)n2)ccc1=O` [Compound A68, 5-[2-(1-methyl-6-oxo-1,6-dihydropyridazin-3-ylamino)pyrimidin-4-yl]-2-(tetrahydropyran-4-yloxy)benzonitrile]: the results for the IC50 (on IKKε; in experiment [1]) were 200 nM and 160 nM, respectively.

For `N#Cc1cc(-c2ccnc(Nc3ccc(C4CCOCC4)nn3)c2)ccc1OC1CCOCC1` [Compound A100, 2-(tetrahydropyran-4-yloxy)-5-{2-[6-(tetrahydropyran-4-yl)pyridazin-3-yl-amino]pyridin-4-yl}benzonitrile], the values for the IC50 (at IKKε; in experiment [1]) were 39 nM and 14 nM, respectively.

Turning to `N#Cc1cc(-c2ccnc(Nc3cnn(CCC4CCNCC4)c3)n2)ccc1OC1CCOCC1` [Compound A45, 5-{2-[1-(2-Piperidin-4-ylethyl)-1H-pyrazol-4-ylamino]pyrimidin-4-yl}-2-(tetrahydropyran-4-yloxy)benzonitrile], the IC50 (at IKKε; in experiment [1]) was 2 nM throughout.

Turning to `COCCn1cc(Nc2cc(-c3ccc(OCC4CC4)c(C#N)c3)ccn2)cn1` [Compound A105, 2-cyclopropylmethoxy-5-{2-[1-(2-methoxyethyl)-1H-pyrazol-4-ylamino]-pyridin-4-yl}benzonitrile], the IC50 at IKKε came to 65 nM; in experiment [1], 220 nM.

`N#Cc1cc(-c2ccnc(Nc3cnn(C4CCNC4)c3)n2)ccc1OC1CCOCC1` (stereo not shown) [Compound A40, 5-[2-(1-Pyrrolidin-3-yl-1H-pyrazol-4-ylamino)pyrimidin-4-yl]-2-(tetrahydropyran-4-yloxy)benzonitrile]: the figures for the IC50 (at IKKε; in experiment [1]) were 5 nM and 7 nM, respectively.

Turning to `CN1CCN(c2ccnc(Nc3cc(-c4ccc(OC5CCOCC5)c(C#N)c4)ccn3)c2)CC1` [Compound A84, 5-{2-[4-(4-methylpiperazin-1-yl)pyridin-2-ylamino]pyridin-4-yl}-2-(tetrahydropyran-4-yloxy)benzonitrile], the IC50 on IKKε was 210 nM; in experiment [1] it was 350 nM.

`N#Cc1cc(-c2ccnc(Nc3cnn(CC(F)F)c3)n2)ccc1OC1CCOCC1` [Compound A44, 5-{2-[1-(2,2-Difluoroethyl)-1H-pyrazol-4-ylamino]pyrimidin-4-yl}-2-(tetrahydropyran-4-yloxy)benzonitrile]: the IC50 on IKKε came to 10 nM; in experiment [1], 5 nM.

In the case of `N#Cc1cc(-c2ccnc(Nc3ccc(CO)cn3)c2)ccc1OCC1CCC1` [Compound A111, 2-cyclobutylmethoxy-5-[2-(5-hydroxymethylpyridin-2-ylamino)pyridin-4-yl]benzonitrile], the IC50 on IKKε was determined as 200 nM; in experiment [1] it was 89 nM.

Turning to `N#Cc1cc(-c2ccnc(Nc3ccc(C(N)=O)cn3)c2)ccc1OC1CCOCC1` [Compound A37, 6-{4-[3-Cyano-4-(tetrahydropyran-4-yloxy)phenyl]pyridin-2-ylamino}nicotinamide], the values for the IC50 (on IKKε; in experiment [1]) were 21 nM and 32 nM, respectively.

`N#Cc1cc(-c2ccnc(Nc3ccc(=O)[nH]n3)n2)ccc1OC1CCOCC1` [Compound A69, 5-[2-(6-oxo-1,6-dihydropyridazin-3-ylamino)pyrimidin-4-yl]-2-(tetrahydropyran-4-yloxy)benzonitrile]: the half-maximal inhibitory concentration (IC50) came to 650 nM on IKKε and 1600 nM in experiment [1].

For `N#Cc1cc(-c2ccnc(Nc3cc(CO)ccn3)n2)ccc1OC1CCOCC1` [Compound A70, 5-[2-(4-hydroxymethylpyridin-2-ylamino)pyrimidin-4-yl]-2-(tetrahydropyran-4-yloxy)benzonitrile], the IC50 at IKKε worked out at 140 nM; in experiment [1], 180 nM.

Regarding `N#Cc1cc(-c2ccnc(Nc3cnn(CCN4CCOCC4)c3)n2)ccc1OC1CCOCC1` [Compound A39, 5-{2-[1-(2-Morpholin-4-ylethyl)-1H-pyrazol-4-ylamino]pyrimidin-4-yl}-2-(tetrahydropyran-4-yloxy)benzonitrile], the IC50 at IKKε was 25 nM; in experiment [1], 16 nM.

With `N#Cc1cc(-c2ccnc(Nc3ccc4oc(C(N)=O)cc4c3)n2)ccc1OC1CCOCC1` [Compound A42, 5-{4-[3-Cyano-4-(tetrahydropyran-4-yloxy)phenyl]pyrimidin-2-ylamino}benzofuran-2-carboxamide], the figures for the IC50 (on IKKε; in experiment [1]) were 15 nM and 10 nM, respectively.

With `N#Cc1cc(-c2ccnc(Nc3cncc(C4=CCCCO4)n3)c2)ccc1OC1CCOCC1` [Compound A92, 5-{2-[6-(5,6-dihydro-4H-pyran-2-yl)pyrazin-2-ylamino]pyridin-4-yl}-2-(tetrahydropyran-4-yloxy)benzonitrile], the IC50 at IKKε worked out at 930 nM; in experiment [1], 850 nM.

In the case of `N#Cc1cc(-c2ccnc(Nc3cnn(CCn4cccn4)c3)n2)ccc1OC1CCOCC1` [Compound A43, 5-{2-[1-(2-Pyrazol-1-ylethyl)-1H-pyrazol-4-ylamino]pyrimidin-4-yl}-2-(tetrahydropyran-4-yloxy)benzonitrile], the IC50 at IKKε is 65 nM; in experiment [1], 70 nM.

For the molecule `CC(=O)N1CCC(COc2ccc(-c3ccnc(Nc4ccc(CO)cn4)c3)cc2C#N)CC1` [Compound A115, 2-(1-acetylpiperidin-4-ylmethoxy)-5-[2-(5-hydroxymethylpyridin-2-ylamino)pyridin-4-yl]benzonitrile], the IC50 at IKKε amounted to 1100 nM; in experiment [1], 1500 nM.

Turning to `N#Cc1cc(-c2ccnc(Nc3cc(CO)ccn3)c2)ccc1OC1CCOCC1` [Compound A18, 5-[2-(4-Hydroxymethylpyridin-2-ylamino)pyridin-4-yl]-2-(tetrahydropyran-4-yloxy)benzonitrile], the values for the IC50 (at IKKε; in experiment [1]) were 13 nM and 8 nM, respectively.

As for `N#Cc1cc(-c2ccnc(Nc3cnn(C4CNC4)c3)c2)ccc1OC1CCOCC1` [Compound A25, 5-[2-(1-Azetidin-3-yl-1H-pyrazol-4-ylamino)pyridin-4-yl]-2-(tetrahydropyran-4-yloxy)benzonitrile], the IC50 at IKKε came out at 67 nM; in experiment [1], 290 nM.

Turning to `N#Cc1cc(-c2ccnc(Nc3ncc4c(n3)CCNC4)c2)ccc1OC1CCOCC1` [Compound A36, 2-(Tetrahydropyran-4-yloxy)-5-[2-(5,6,7,8-tetrahydropyrido[4,3-d]pyrimidin-2-ylamino)pyridin-4-yl]benzonitrile], the concentration for half-maximal inhibition (IC50) on IKKε was 140 nM.
